CCCNS(=O)(=O)Nc1ncnc(OCCOc2ncc(Br)cn2)c1-c1ccc(Br)cc1
solubility (mole fraction)
Settings | 273.15 K | 278.15 K | 283.15 K | 288.15 K | 293.15 K | 298.15 K | 303.15 K | 308.15 K | 313.15 K
in ethanol | 6.4e-05 | 8.8e-05 | 0.000117 | 0.000151 | 0.000188 | 0.000234 | 0.000293 | 0.000365 | 0.000458
in ethyl acetate | 0.00338 | 0.00406 | 0.00483 | 0.00577 | 0.00681 | 0.00793 | 0.00921 | 0.0107 | 0.0122
in isopropanol | 4.7e-05 | 5.9e-05 | 7.5e-05 | 9.2e-05 | 0.000114 | 0.000141 | 0.000172 | 0.000206 | 0.000246
in methanol | 7.6e-05 | 0.000109 | 0.000145 | 0.000186 | 0.000232 | 0.000284 | 0.000358 | 0.000463 | 0.000602

From BigSolDB 2.1
